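Growth conditions: 96-well plates. Treatment: test compound, 48 hours, 5 concentrations. Analysis: linear interpolation between bracketing concentrations; unreached endpoints set to highest concentration. TGI marks complete inhibition of growth.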
What was measured:
Assay in all cases: growth of human tumour cells (NCI), 48 h
ACHN renal = system: ACHN renal
HS 578T breast = system: HS 578T breast
HT29 colon = system: HT29 colon
MDA-N = system: MDA-N
OVCAR-4 ovarian = system: OVCAR-4 ovarian
PC-3 prostate = system: PC-3 prostate
SF-268 CNS = system: SF-268 CNS
SF-295 CNS = system: SF-295 CNS
SF-539 CNS = system: SF-539 CNS
SNB-19 CNS = system: SNB-19 CNS
SW-620 colon = system: SW-620 colon
U251 CNS = system: U251 CNS
UACC-257 melanoma = system: UACC-257 melanoma
HCC-2998 colon = system: HCC-2998 colon
LOX IMVI melanoma = system: LOX IMVI melanoma
MCF7 breast = system: MCF7 breast

For `CC1C2CC(CC2O)C1(C)C` (stereo not drawn), the TGI (ACHN renal) was greater than 100 µM, the TGI (HS 578T breast) was greater than 100 µM and the TGI (HT29 colon) was greater than 100 µM. The TGI (MDA-N) was greater than 100 µM, the TGI (OVCAR-4 ovarian) was greater than 100 µM and the TGI (PC-3 prostate) was greater than 100 µM. It also gave a TGI (SF-268 CNS) greater than 100 µM, a TGI (SF-295 CNS) greater than 100 µM and a TGI (SF-539 CNS) greater than 100 µM. The TGI (SNB-19 CNS) was greater than 100 µM, the TGI (SW-620 colon) was greater than 100 µM and the TGI (U251 CNS) was greater than 100 µM. The TGI (UACC-257 melanoma) was greater than 100 µM.
`Cn1c2c(c3ccccc31)CC(=O)N1CCCC(C1)CC21OCCO1` (stereo not drawn) was tested, and the TGI (ACHN renal) was greater than 100 µM, the TGI (HCC-2998 colon) was greater than 100 µM and the TGI (HT29 colon) was greater than 100 µM. For the same compound, the TGI (LOX IMVI melanoma) was greater than 100 µM, the TGI (MCF7 breast) was greater than 100 µM and the TGI (MDA-N) was greater than 100 µM. It also gave a TGI (OVCAR-4 ovarian) greater than 100 µM, a TGI (PC-3 prostate) greater than 100 µM and a TGI (SF-268 CNS) greater than 100 µM. For the same compound, the TGI (SF-295 CNS) was greater than 100 µM, the TGI (SNB-19 CNS) was greater than 100 µM and the TGI (SW-620 colon) was greater than 100 µM. It also gave a TGI (U251 CNS) greater than 100 µM and a TGI (UACC-257 melanoma) greater than 100 µM.
`Nc1nc(Cl)cc(NCC2(CO)CC(c3ccccc3)C2)n1` (stereo not drawn) gave a TGI (ACHN renal) greater than 100 µM, a TGI (HS 578T breast) of 83.8 µM and a TGI (HT29 colon) greater than 100 µM. For the same compound, the TGI (LOX IMVI melanoma) was greater than 100 µM, the TGI (MCF7 breast) was greater than 100 µM and the TGI (MDA-N) was greater than 100 µM. It also gave a TGI (OVCAR-4 ovarian) greater than 100 µM, a TGI (PC-3 prostate) greater than 100 µM and a TGI (SF-268 CNS) greater than 100 µM. For the same compound, the TGI (SF-295 CNS) was greater than 100 µM, the TGI (SF-539 CNS) was greater than 100 µM and the TGI (SNB-19 CNS) was greater than 100 µM. For the same compound, the TGI (SW-620 colon) was greater than 100 µM, the TGI (U251 CNS) was greater than 100 µM and the TGI (UACC-257 melanoma) was greater than 100 µM.
In the case of `c1ccc2c(c1)ncn2CCn1ccnc1`, the TGI (ACHN renal) is reported as greater than 100 µM, the TGI (HCC-2998 colon) is reported as greater than 100 µM and the TGI (HS 578T breast) is reported as greater than 100 µM. For the same compound, the TGI (HT29 colon) was greater than 100 µM, the TGI (LOX IMVI melanoma) was greater than 100 µM and the TGI (MCF7 breast) was greater than 100 µM. It also gave a TGI (OVCAR-4 ovarian) greater than 100 µM, a TGI (PC-3 prostate) greater than 100 µM and a TGI (SF-268 CNS) greater than 100 µM. The TGI (SF-295 CNS) was greater than 100 µM, the TGI (SF-539 CNS) was greater than 100 µM and the TGI (SNB-19 CNS) was greater than 100 µM. For the same compound, the TGI (SW-620 colon) was greater than 100 µM and the TGI (U251 CNS) was greater than 100 µM.
For `CC(C)CC(NC=O)C(=O)NC(Cc1ccccc1)NC(=O)CNC(=O)C(C)NC(=O)OC(C)(C)C` (stereo not drawn), the TGI (ACHN renal) was greater than 100 µM, the TGI (HS 578T breast) was greater than 100 µM and the TGI (HT29 colon) was greater than 100 µM. For the same compound, the TGI (LOX IMVI melanoma) was greater than 100 µM, the TGI (MCF7 breast) was greater than 100 µM and the TGI (MDA-N) was greater than 100 µM. The TGI (OVCAR-4 ovarian) was greater than 100 µM, the TGI (PC-3 prostate) was greater than 100 µM and the TGI (SF-268 CNS) was greater than 100 µM. For the same compound, the TGI (SF-295 CNS) was greater than 100 µM, the TGI (SF-539 CNS) was greater than 100 µM and the TGI (SNB-19 CNS) was greater than 100 µM. The TGI (SW-620 colon) was greater than 100 µM and the TGI (U251 CNS) was greater than 100 µM.
`CC12OC3(C(O)C1O)C(C(=O)O[C@H]3CO[Si](C)(C)C(C)(C)C)C2S(=O)(=O)c1ccccc1` (stereo partly drawn) showed a TGI (ACHN renal) greater than 100 µM, a TGI (HS 578T breast) greater than 100 µM and a TGI (HT29 colon) greater than 100 µM. For the same compound, the TGI (LOX IMVI melanoma) was 46.8 µM, the TGI (MCF7 breast) was greater than 100 µM and the TGI (MDA-N) was greater than 100 µM. For the same compound, the TGI (OVCAR-4 ovarian) was 95 µM, the TGI (PC-3 prostate) was 96.3 µM and the TGI (SF-268 CNS) was greater than 100 µM. For the same compound, the TGI (SF-295 CNS) was greater than 100 µM, the TGI (SF-539 CNS) was greater than 100 µM and the TGI (SNB-19 CNS) was greater than 100 µM. For the same compound, the TGI (SW-620 colon) was greater than 100 µM, the TGI (U251 CNS) was greater than 100 µM and the TGI (UACC-257 melanoma) was 69 µM.
`CCOC(=O)C1=COC(C)(C)CC1=O` was tested, and the TGI (ACHN renal) was greater than 100 µM, the TGI (HS 578T breast) was greater than 100 µM and the TGI (HT29 colon) was greater than 100 µM. The TGI (MCF7 breast) was greater than 100 µM, the TGI (MDA-N) was greater than 100 µM and the TGI (OVCAR-4 ovarian) was greater than 100 µM. It also gave a TGI (PC-3 prostate) greater than 100 µM, a TGI (SF-268 CNS) greater than 100 µM and a TGI (SF-295 CNS) greater than 100 µM. The TGI (SF-539 CNS) was greater than 100 µM, the TGI (SNB-19 CNS) was greater than 100 µM and the TGI (SW-620 colon) was greater than 100 µM. For the same compound, the TGI (U251 CNS) was greater than 100 µM and the TGI (UACC-257 melanoma) was greater than 100 µM.
`S=C1NCCN1C(=S)NC1CCCCC1` gave a TGI (ACHN renal) greater than 100 µM, a TGI (HCC-2998 colon) of 42.3 µM and a TGI (HS 578T breast) of 99.2 µM. For the same compound, the TGI (HT29 colon) was 57.2 µM, the TGI (LOX IMVI melanoma) was greater than 100 µM and the TGI (MCF7 breast) was greater than 100 µM. For the same compound, the TGI (MDA-N) was greater than 100 µM, the TGI (OVCAR-4 ovarian) was 45.5 µM and the TGI (SF-268 CNS) was greater than 100 µM. For the same compound, the TGI (SF-295 CNS) was greater than 100 µM, the TGI (SF-539 CNS) was 70.7 µM and the TGI (SW-620 colon) was greater than 100 µM. The TGI (U251 CNS) was greater than 100 µM and the TGI (UACC-257 melanoma) was 63.3 µM.

Source: PubChem BioAssay (NCI)
